Our source for the Ki values is patent US10435405B2, “Pyrazolopyridine compounds and uses thereof” (Incyte Corporation, priority 2016, dated 2019).

Structures are written as SMILES.

For this assay, the target named is HPK1 (Homo sapiens (Human), UniProt Q92918). Kind of assay: HPK1 Kinase Binding Assay. As for the experimental part: A stock solution of 1 mM test compound was prepared in DMSO. The compound plate was prepared by 3-fold and 11-point serial dilutions. 0.1 μL of the compound in DMSO was transferred from the compound plate to the white 384 well polystyrene plates. The assay buffer contained 50 mM HEPES, pH 7.5, 0.01% Tween-20, 5 mM MgCl2, 0.01% BSA, and 5 mM DTT. 5 μl of 4 nM active HPK1 (SignalChem M23-11G) prepared in the buffer was added to the plate. The enzyme concentration given was based on the given stock concentration reported by the vender. 5 μl of 18 nM tracer 222 (ThermoFisher PV6121) and 4 nM LanthaScreen Eu-Anti GST antibody (ThermoFisher PV5595) were added. After one hour incubation at 25° C., the plates were read on a PHERAstar FS plate reader (BMG Labtech). Ki values were determined.
Sequence of HPK1 (Q92918 1-346): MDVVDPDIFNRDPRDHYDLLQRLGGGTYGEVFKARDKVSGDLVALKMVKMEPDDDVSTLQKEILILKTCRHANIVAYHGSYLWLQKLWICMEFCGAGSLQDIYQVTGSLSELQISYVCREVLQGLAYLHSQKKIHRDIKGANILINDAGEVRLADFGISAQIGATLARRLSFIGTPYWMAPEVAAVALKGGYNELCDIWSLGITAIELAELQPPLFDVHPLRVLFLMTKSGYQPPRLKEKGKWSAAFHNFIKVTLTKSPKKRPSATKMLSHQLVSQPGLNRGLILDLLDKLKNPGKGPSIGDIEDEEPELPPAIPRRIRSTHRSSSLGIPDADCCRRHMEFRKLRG
Regarding `Cn1cc(-c2n[nH]c3cnc(-c4cccc(CNC5CCOCC5)c4C(F)(F)F)cc23)cn1` [Example 90, N-(3-(3-(1-Methyl-1H-pyrazol-4-yl)-1H-pyrazolo[3,4-c]pyridin-5-yl)-2-(trifluoromethyl)benzyl)tetrahydro-2H-pyran-4-amine], the Ki – broadly, the dissociation constant of the complex between target and ligand, obtained from inhibition or displacement – was no more than 100 nM.

Consider `COc1cccc(F)c1-c1cc2c(-c3cccc(C4CCN(C)CC4)n3)n[nH]c2cn1` [Example 115, 5-(2-Fluoro-6-methoxyphenyl)-3-(6-(1-methylpiperidin-4-yl)pyridin-2-yl)-1H-pyrazolo[3,4-c]pyridine], for which the Ki was no more than 100 nM. `Cc1cc(C2CCCCN2)cc(F)c1-c1cc2c(-c3cnn(C)c3)n[nH]c2cn1` (single isomer, unassigned) [Example 174, 5-(2-Fluoro-6-methyl-4-(piperidin-2-yl)phenyl)-3-(1-methyl-1H-pyrazol-4-yl)-1H-pyrazolo[3,4-c]pyridine] gave a Ki of no more than 100 nM. Turning to `CNC(=O)c1ccc(-c2n[nH]c3cnc(-c4c(F)cccc4OC)cc23)cc1OC` [Example 102, 4-(5-(2-Fluoro-6-methoxyphenyl)-1H-pyrazolo[3,4-c]pyridin-3-yl)-2-methoxy-N-methylbenzamide], the Ki is no more than 100 nM. In the case of `COc1cccc(F)c1-c1cc2c(NC(=O)c3ccc(N4CCNCC4)cc3)n[nH]c2cn1` [Example 33, N-(5-(2-Fluoro-6-methoxyphenyl)-1H-pyrazolo[3,4-c]pyridin-3-yl)-4-(piperazin-1-yl)benzamide] it was no more than 100 nM; in that of `CN1CCN(c2ccc(-c3n[nH]c4cnc(-c5c(F)cccc5CO)cc34)cc2)CC1` [Example 196, (3-Fluoro-2-(3-(4-(4-methylpiperazin-1-yl)phenyl)-1H-pyrazolo[3,4-c]pyridin-5-yl)phenyl)methanol], no more than 100 nM. Under `COc1cccc(F)c1-c1cc2c(NC(=O)c3ccc(C)cc3)n[nH]c2cn1` [Example 2, N-(5-(2-Fluoro-6-methoxyphenyl)-1H-pyrazolo[3,4-c]pyridin-3-yl)-4-methylbenzamide] stands no more than 100 nM.

Molecule `CNCc1cc(C)c(-c2cc3c(-c4cccc(N5CCOCC5)n4)n[nH]c3cn2)c(F)c1` [Example 117, 1-(3-Fluoro-5-methyl-4-(3-(6-morpholinopyridin-2-yl)-1H-pyrazolo[3,4-c]pyridin-5-yl)phenyl)-N-methylmethanamine] displayed a Ki of no more than 100 nM. Under `CNCc1ccc(-c2cc3c(-c4cnn(C)c4)n[nH]c3cn2)c(C(F)(F)F)c1` [Example 112, N-Methyl-1-(4-(3-(1-methyl-1H-pyrazol-4-yl)-1H-pyrazolo[3,4-c]pyridin-5-yl)-3-(trifluoromethyl)phenyl)methanamine] stands no more than 100 nM; under `COc1cccc(F)c1-c1cc2c(NC(=O)c3cccc(C#N)c3)n[nH]c2cn1` [Example 7, 3-Cyano-N-(5-(2-fluoro-6-methoxyphenyl)-1H-pyrazolo[3,4-c]pyridin-3-yl)benzamide], no more than 100 nM. The molecule `Cc1c(CNC2CC(C)(C)C2)ccc(F)c1-c1cc2c(-c3cnn(C)c3)n[nH]c2cn1` [Example 223, N-(4-Fluoro-2-methyl-3-(3-(1-methyl-1H-pyrazol-4-yl)-1H-pyrazolo[3,4-c]pyridin-5-yl)benzyl)-3,3-dimethylcyclobutanamine] gave an inhibition constant (Ki) of no more than 100 nM.

Turning to `CNCc1cc(F)c(-c2cc3c(-c4cnn(C)c4)n[nH]c3cn2)c(F)c1` [Example 122, 1-(3,5-Difluoro-4-(3-(1-methyl-1H-pyrazol-4-yl)-1H-pyrazolo[3,4-c]pyridin-5-yl)phenyl)-N-methylmethanamine], the Ki was no more than 100 nM.

Take `Cn1cc(-c2n[nH]c3cnc(-c4c(F)cc(NC(=O)CN5CCCC5)cc4F)cc23)cn1` [Example 64, N-(3,5-Difluoro-4-(3-(1-methyl-1H-pyrazol-4-yl)-1H-pyrazolo[3,4-c]pyridin-5-yl)phenyl)-2-(pyrrolidin-1-yl)acetamide]: the inhibitory constant (Ki) was no more than 100 nM. Under `CNC1CCc2cc(F)c(-c3cc4c(-c5ccc(N6CCN(C)CC6)cc5)n[nH]c4cn3)c(F)c21` (stereo not shown) [Example 205, 5,7-Difluoro-N-methyl-6-(3-(4-(4-methylpiperazin-1-yl)phenyl)-1H-pyrazolo[3,4-c]pyridin-5-yl)-2,3-dihydro-1H-inden-1-amine] stands no more than 100 nM. In the case of `COc1cccc(F)c1-c1cc2c(C(=O)Nc3ccc(N4CCOCC4)cc3)n[nH]c2cn1` [Example 55, 5-(2-Fluoro-6-methoxyphenyl)-N-(4-morpholinophenyl)-1H-pyrazolo[3,4-c]pyridine-3-carboxamide] it was no more than 100 nM. Under `CN1CCN(c2ccc(-c3n[nH]c4cnc(-c5cc(F)cc(C6(CN)CC6)c5)cc34)cc2)CC1` [Example 42, 1-[1-(3-Fluoro-5-{3-[4-(4-methylpiperazin-1-yl)phenyl]-1H-pyrazolo[3,4-c]pyridin-5-yl}phenyl)cyclopropyl]methanamine] stands no more than 100 nM; under `COc1cccc(F)c1-c1cc2c(NC(=O)c3ccc(N4CCNC(=O)C4)cc3)n[nH]c2cn1` [Example 25, N-(5-(2-Fluoro-6-methoxyphenyl)-1H-pyrazolo[3,4-c]pyridin-3-yl)-4-(3-oxopiperazin-1-yl)benzamide], no more than 100 nM. `CNC(=O)c1ccc(-c2n[nH]c3cnc(-c4c(F)cccc4OC)cc23)cc1F` [Example 100, 2-Fluoro-4-(5-(2-fluoro-6-methoxyphenyl)-1H-pyrazolo[3,4-c]pyridin-3-yl)-N-methylbenzamide]: the Ki is no more than 100 nM. Under `CNCc1ccc(F)c(-c2cc3c(-c4cnn(C)c4)n[nH]c3cn2)c1C` [Example 92, 1-(4-Fluoro-2-methyl-3-(3-(1-methyl-1H-pyrazol-4-yl)-1H-pyrazolo[3,4-c]pyridin-5-yl)phenyl)-N-methylmethanamine] stands no more than 100 nM; under `CC(C)N1CC(NCCc2cc(F)c(-c3cc4c(-c5cnn(C)c5)n[nH]c4cn3)c(F)c2)C1` [Example 99, N-(3,5-Difluoro-4-(3-(1-methyl-1H-pyrazol-4-yl)-1H-pyrazolo[3,4-c]pyridin-5-yl)phenethyl)-1-isopropylazetidin-3-amine], no more than 100 nM. In the case of `CNCc1cc(F)c(-c2cc3c(NC(=O)c4cccc(N5CCN(C)CC5)c4)n[nH]c3cn2)c(F)c1` [Example 145, N-(5-(2,6-Difluoro-4-((methylamino)methyl)phenyl)-1H-pyrazolo[3,4-c]pyridin-3-yl)-3-(4-methylpiperazin-1-yl)benzamide] it was no more than 100 nM; in that of `CNC1CCCc2c1cc(F)c(-c1cc3c(-c4cnn(C)c4)n[nH]c3cn1)c2F` (stereo not shown) [Example 202, 5,7-Difluoro-N-methyl-6-(3-(1-methyl-1H-pyrazol-4-yl)-1H-pyrazolo[3,4-c]pyridin-5-yl)-1,2,3,4-tetrahydronaphthalen-1-amine], no more than 100 nM; in that of `Cn1cc(-c2n[nH]c3cnc(-c4c(F)ccc(NC(=O)Cc5ccccc5)c4F)cc23)cn1` [Example 60, N-(2,4-Difluoro-3-(3-(1-methyl-1H-pyrazol-4-yl)-1H-pyrazolo[3,4-c]pyridin-5-yl)phenyl)-2-phenylacetamide], no more than 100 nM. In the case of `CNCc1ccc(F)c(-c2cc3c(-c4cnn(C)c4)n[nH]c3cn2)c1F` [Example 127, 1-(2,4-Difluoro-3-(3-(1-methyl-1H-pyrazol-4-yl)-1H-pyrazolo[3,4-c]pyridin-5-yl)phenyl)-N-methylmethanamine] it was no more than 100 nM; in that of `CNC1CCc2c1cc(F)c(-c1cc3c(-c4ccc(N5CCN(C)CC5)cc4)n[nH]c3cn1)c2F` (stereo not shown) [Example 197, 4,6-Difluoro-N-methyl-5-(3-(4-(4-methylpiperazin-1-yl)phenyl)-1H-pyrazolo[3,4-c]pyridin-5-yl)-2,3-dihydro-1H-inden-1-amine], no more than 100 nM. `CNC1CCc2c1cc(F)c(-c1cc3c(-c4cnn(C)c4)n[nH]c3cn1)c2F` (stereo not shown) [Example 198, 4,6-Difluoro-N-methyl-5-(3-(1-methyl-1H-pyrazol-4-yl)-1H-pyrazolo[3,4-c]pyridin-5-yl)-2,3-dihydro-1H-inden-1-amine]: the Ki is no more than 100 nM. In turn, `CNC(=O)c1ccc(-c2n[nH]c3cnc(-c4c(F)cccc4OC)cc23)cc1C` [Example 103, 4-(5-(2-Fluoro-6-methoxyphenyl)-1H-pyrazolo[3,4-c]pyridin-3-yl)-N,2-dimethylbenzamide] showed a Ki of no more than 100 nM. As to `CNCc1cc(F)c(-c2cc3c(-c4ccc(OC)cc4)n[nH]c3cn2)c(F)c1` [Example 165, 1-(3,5-Difluoro-4-(3-(4-methoxyphenyl)-1H-pyrazolo[3,4-c]pyridin-5-yl)phenyl)-N-methylmethanamine], the Ki was no more than 100 nM. Under `CNC1CCc2cc(F)c(-c3ncc4[nH]nc(-c5cnn(C)c5)c4c3OC)c(F)c2C1` (stereo not shown) [Example 214, 6,8-Difluoro-7-(4-methoxy-3-(1-methyl-1H-pyrazol-4-yl)-1H-pyrazolo[3,4-c]pyridin-5-yl)-N-methyl-1,2,3,4-tetrahydronaphthalen-2-amine] stands no more than 100 nM; under `CNCc1cc(F)c(-c2cc3c(-c4ccnc(N5CCN(C)CC5)c4)n[nH]c3cn2)c(F)c1` [Example 163, 1-(3,5-Difluoro-4-(3-(2-(4-methylpiperazin-1-yl)pyridin-4-yl)-1H-pyrazolo[3,4-c]pyridin-5-yl)phenyl)-N-methylmethanamine], no more than 100 nM; under `CC(C)NCc1cc(F)c(-c2cc3c(NC(=O)c4cccc(N5CCN(C)CC5)c4F)n[nH]c3cn2)c(F)c1` [Example 150, N-(5-(2,6-Difluoro-4-((isopropylamino)methyl)phenyl)-1H-pyrazolo[3,4-c]pyridin-3-yl)-2-fluoro-3-(4-methylpiperazin-1-yl)benzamide], no more than 100 nM.
